Laboratory results taken from ChEMBL document CHEMBL1201862, “PubChem BioAssay data set” (2004).
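Five concentrations, 48 hours, 96-well plates. Abbreviation: GI50, concentration required for 50% inhibition of growth.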 The source made the active and inactive calls. No stated cut-off is given here; in the data, active = GI50 up to about 1.1 µM and inactive = higher. Square brackets hold non-standard residues; d marks the D form. Peptide text beside a SMILES is read from it. * marks the point of attachment. ξ: configuration not given here. ξW = NC(Cc1c[nH]c2ccccc12)C(=O)O; X29 = O=C(O)[C@H]1CCC[C@H]1N*; ξF = NC(Cc1ccccc1)C(=O)O; Boc = CC(C)(C)OC(=O)*; ξK = NCCCCC(N)C(=O)O; ξT = CC(O)C(N)C(=O)O; tBu = CC(C)(C)*

How the values were obtained:
Assay in all cases: inhibition of tumour cell growth, NCI panel, 48 h
[1] = test system: SF-295
[2] = test system: SF-268
[3] = test system: RPMI-8226
[4] = test system: HOP-62
[5] = test system: COLO 205
[6] = test system: IGROV-1
[7] = test system: NCI-H522
[8] = test system: KM12
[9] = test system: EKVX
[10] = test system: SR
[11] = test system: TK-10
[12] = test system: OVCAR-4
[13] = test system: HCT-15
[14] = test system: UACC-257
[15] = test system: OVCAR-5
[16] = test system: HCC 2998
[17] = test system: LOX IMVI
[18] = test system: MCF7
[19] = test system: SN12C
[20] = test system: RXF 393
[21] = test system: A498
[22] = test system: PC-3
[23] = test system: NCI-H23
[24] = test system: SK-MEL-28
[25] = test system: MDA-MB-231
[26] = test system: SF-539
[27] = test system: NCI-H460
[28] = test system: MDA-N
[29] = test system: M14
[30] = test system: CCRF-CEM
[31] = test system: U-251
[32] = test system: ACHN
[33] = test system: HL-60
[34] = test system: Hs-578T
[35] = test system: K562
[36] = test system: SK-OV-3
[37] = test system: SW-620
[38] = test system: SK-MEL-2
[39] = test system: UO-31
[40] = test system: HOP-92
[41] = test system: 786-0
[42] = test system: NCI/ADR-RES
[43] = test system: OVCAR-3
[44] = test system: DU-145
[45] = test system: NCI-H226
[46] = test system: SNB-19
[47] = test system: CAKI-1
[48] = test system: SK-MEL-5
[49] = test system: MOLT-4
[50] = test system: OVCAR-8
[51] = test system: A549
[52] = test system: HT-29
[53] = test system: T47D
[54] = test system: Malme-3M
[55] = test system: HCT-116
[56] = test system: MDA-MB-435
[57] = test system: SNB-75
[58] = test system: UACC-62

For `CC1(C)CCC[C@]2(C)[C@H]3[C@H](C#N)c4cc(O)c(O)cc4O[C@@]3(C)CC[C@@H]12`, the GI50 [1] was > 10 µM (inactive), the GI50 [2] was > 10 µM (inactive) and the GI50 [3] was > 10 µM (inactive). The GI50 [4] was > 10 µM (inactive), the GI50 [5] was > 10 µM (inactive) and the GI50 [6] was > 10 µM (inactive). For the same molecule, the GI50 [7] was > 10 µM (inactive), the GI50 [8] was > 10 µM (inactive) and the GI50 [9] was > 10 µM (inactive). The GI50 [10] was > 10 µM (inactive), the GI50 [11] was > 10 µM (inactive) and the GI50 [12] was > 10 µM (inactive). For the same molecule, the GI50 [13] was greater than 10 µM, the GI50 [14] was > 10 µM (inactive) and the GI50 [15] was > 10 µM (inactive). The GI50 [16] was > 10 µM (inactive), the GI50 [17] was > 10 µM (inactive) and the GI50 [18] was > 10 µM (inactive). For the same molecule, the GI50 [19] was > 10 µM (inactive), the GI50 [20] was > 10 µM (inactive) and the GI50 [21] was > 10 µM (inactive). The GI50 [22] was > 10 µM (inactive), the GI50 [23] was > 10 µM (inactive) and the GI50 [24] was > 10 µM (inactive). The GI50 [25] was > 10 µM (inactive), the GI50 [26] was > 10 µM (inactive) and the GI50 [27] was > 10 µM (inactive). The GI50 [28] was > 10 µM (inactive), the GI50 [29] was > 10 µM (inactive) and the GI50 [30] was > 10 µM (inactive). The GI50 [31] was > 10 µM (inactive), the GI50 [32] was > 10 µM (inactive) and the GI50 [33] was > 10 µM (inactive). For the same molecule, the GI50 [34] was > 10 µM (inactive), the GI50 [35] was > 10 µM (inactive) and the GI50 [36] was > 10 µM (inactive). For the same molecule, the GI50 [37] was > 10 µM (inactive), the GI50 [38] was > 10 µM (inactive) and the GI50 [39] was 5.87 µM (inactive). The GI50 [40] was > 10 µM (inactive), the GI50 [41] was > 10 µM (inactive) and the GI50 [42] was > 10 µM (inactive). For the same molecule, the GI50 [43] was > 10 µM (inactive), the GI50 [44] was > 10 µM (inactive) and the GI50 [45] was > 10 µM (inactive). The GI50 [46] was > 10 µM (inactive), the GI50 [47] was > 10 µM (inactive) and the GI50 [48] was > 10 µM (inactive). For the same molecule, the GI50 [49] was > 10 µM (inactive) and the GI50 [50] was > 10 µM (inactive).
In the case of `CC(C)(/N=N/C(C)(C)C1=NCCN1)C1=NCCN1`, the GI50 [11] is reported as > 100 µM (inactive), the GI50 [51] is reported as > 100 µM (inactive) and the GI50 [23] is reported as > 100 µM (inactive). The GI50 [36] was > 100 µM (inactive), the GI50 [40] was > 100 µM (inactive) and the GI50 [47] was > 100 µM (inactive).
In the case of `CC(OC(C)(C)C)C(NC(=O)C(CCCCNC(=O)OC(C)(C)C)NC(=O)C(Cc1c[nH]c2ccccc12)NC(=O)C(N)Cc1ccccc1)C(=O)NC(Cc1ccccc1)C(=O)N[C@@H]1CCC[C@@H]1C(=O)O` (some centres not stated) (H-[ξF][ξW][ξK](Boc)[ξT](tBu)[ξF]-X29), the GI50 [1] is reported as > 100 µM (inactive), the GI50 [2] is reported as 44.8 µM (inactive) and the GI50 [3] is reported as 35.2 µM (inactive). The GI50 [4] was > 100 µM (inactive), the GI50 [5] was 27.4 µM (inactive) and the GI50 [6] was 51.4 µM (inactive). The GI50 [7] was 20.7 µM (inactive), the GI50 [8] was 19.4 µM (inactive) and the GI50 [9] was > 100 µM (inactive). The GI50 [52] was 29.6 µM (inactive), the GI50 [10] was 35.5 µM (inactive) and the GI50 [12] was 71.4 µM (inactive). The GI50 [53] was 33.8 µM (inactive), the GI50 [13] was greater than 10 µM and the GI50 [14] was > 100 µM (inactive). For the same molecule, the GI50 [15] was 23.2 µM (inactive), the GI50 [16] was 19.7 µM (inactive) and the GI50 [51] was > 100 µM (inactive). For the same molecule, the GI50 [17] was 20.8 µM (inactive), the GI50 [18] was 27 µM (inactive) and the GI50 [19] was 28.2 µM (inactive). For the same molecule, the GI50 [20] was > 100 µM (inactive), the GI50 [22] was 45.6 µM (inactive) and the GI50 [23] was 34 µM (inactive). The GI50 [54] was 40 µM (inactive), the GI50 [24] was 75.5 µM (inactive) and the GI50 [25] was 38.6 µM (inactive). For the same molecule, the GI50 [26] was 19.4 µM (inactive), the GI50 [27] was > 100 µM (inactive) and the GI50 [28] was 52.1 µM (inactive). The GI50 [29] was > 100 µM (inactive), the GI50 [30] was 36.2 µM (inactive) and the GI50 [31] was 24.3 µM (inactive). For the same molecule, the GI50 [32] was > 100 µM (inactive), the GI50 [55] was 39.5 µM (inactive) and the GI50 [33] was 29 µM (inactive). The GI50 [34] was 19.9 µM (inactive), the GI50 [35] was 51.6 µM (inactive) and the GI50 [36] was 38.8 µM (inactive). For the same molecule, the GI50 [37] was 47.1 µM (inactive), the GI50 [56] was 37.2 µM (inactive) and the GI50 [57] was 59.6 µM (inactive). The GI50 [38] was 16.7 µM (inactive), the GI50 [39] was > 100 µM (inactive) and the GI50 [40] was 30.3 µM (inactive). The GI50 [41] was > 100 µM (inactive), the GI50 [58] was 33.4 µM (inactive) and the GI50 [42] was > 100 µM (inactive). For the same molecule, the GI50 [43] was 37.1 µM (inactive), the GI50 [44] was 46.2 µM (inactive) and the GI50 [45] was 28.5 µM (inactive). The GI50 [46] was 33.6 µM (inactive), the GI50 [47] was > 100 µM (inactive) and the GI50 [48] was 11.1 µM (inactive). The GI50 [49] was 41.6 µM (inactive) and the GI50 [50] was > 100 µM (inactive).
